Measured values published in patent US9499550B2 (BRISTOL-MYERS SQUIBB COMPANY, priority 2012, dated 2016).

Columns and labels:
[1] = test system: HCV genotype 1a (H77 strain) replicon in HUH-7 cells; test: HCV replicon luciferase reporter assay, genotype 1a; assay type: cell-based; conditions: Hepatitis C virus, Huh-7, 72 h, HCV genotype 1a replicon luciferase, 3 days incubation, read-out: LE_1a (EC50, range)
In short: (§1)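 Replicon inhibition for both genotypes was measured as Renilla luciferase signal (EnduRen, 7.5 μM final, 2 h) after 3-day, 37° C exposure of replicon-bearing HUH-7 cells in 4% FCS DMEM, 0.5% DMSO. The 1b construct carries S1179I; the 1a H77 construct carries P1496L and S2204I. Twenty-point, 3-fold dilutions were fitted four-parametrically for EC50, and CC50 was taken from multiplexed Cell Titer-Blue.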

[2] = test system: HCV genotype 1b (Con1) replicon in HUH-7 cells; test: HCV replicon luciferase reporter assay, genotype 1b; assay type: cell-based; conditions: Hepatitis C virus, Huh-7, 72 h, HCV genotype 1b replicon luciferase, 3 days incubation, read-out: LE_1b (EC50, range)
In short: as §1

| SMILES | EC50 [1] [nM] | EC50 [2] [nM] |
| --- | --- | --- |
| COc1ccc2c(O[C@@H]3C[C@H]4C(=O)N[C@]5(C(=O)NS(=O)(=O)C6CC6)C[C@H]5/C=C\CC[C@H](C)C[C@@H](C)[C@H](NC(=O)OC5C[C@@H]6C[C@@H]6C5)C(=O)N4C3)nc(-c3ccc(OC(C)C)cn3)cc2c1 (stereo partly drawn) [Compound 5208, (1R,3r,5S)-bicyclo[3.1.0]hexan-3-yl((2R,6S,7R,9S,13aS,14aR,16aS,Z)-14a-((cyclopropylsulfonyl)carbamoyl)-2-((3-(5-isopropoxypyridin-2-yl)-6-methoxyisoquinolin-1-yl)oxy)-7,9-dimethyl-5,16-dioxo-1,2,3,5,6,7,8,9,10,11,13a,14,14a,15,16,16a-hexadecahydrocyclopropa[e]pyrrolo[1,2-a][1,4]diazacyclopentadecin-6-yl)carbamate] | < 5.46 | < 5.46 |
| COc1ccc2c(O[C@@H]3C[C@H]4C(=O)N[C@]5(C(=O)NS(=O)(=O)C6CC6)C[C@H]5/C=C\CC[C@@H](C)C[C@@H](C)[C@H](NC(=O)OC5C[C@@H]6C[C@@H]6C5)C(=O)N4C3)nc(-c3ccc(OC(C)C)cn3)cc2c1 (stereo partly drawn) [Compound 5209, (1R,3r,5S)-bicyclo[3.1.0]hexan-3-yl((2R,6S,7R,9R,13aS,14aR,16aS,Z)-14a-((cyclopropylsulfonyl)carbamoyl)-2-((3-(5-isopropoxypyridin-2-yl)-6-methoxyisoquinolin-1-yl)oxy)-7,9-dimethyl-5,16-dioxo-1,2,3,5,6,7,8,9,10,11,13a,14,14a,15,16,16a-hexadecahydrocyclopropa[e]pyrrolo[1,2-a][1,4]diazacyclopentadecin-6-yl)carbamate] | < 5.46 | < 5.46 |
| COc1ccc2c(O[C@@H]3C[C@H]4C(=O)N[C@]5(C(=O)NS(=O)(=O)C6CC6)C[C@H]5/C=C\CC[C@H](C)C[C@@H](C)[C@H](NC(=O)NC(C)(C)C)C(=O)N4C3)nc(-c3ccc(OC(C)C)cn3)cc2c1 [Compound 5210, (2R,6S,7R,9S,13aS,14aR,16aS,Z)-6-(3-(tert-butyl)ureido)-N-(cyclopropylsulfonyl)-2-((3-(5-isopropoxypyridin-2-yl)-6-methoxyisoquinolin-1-yl)oxy)-7,9-dimethyl-5,16-dioxo-1,2,3,5,6,7,8,9,10,11,13a,14,14a,15,16,16a-hexadecahydrocyclopropa[e]pyrrolo[1,2-a][1,4]diazacyclopentadecine-14a-carboxamide] | < 5.46 | < 5.46 |
| COc1ccc2c(O[C@@H]3C[C@H]4C(=O)N[C@]5(C(=O)NS(=O)(=O)C6CC6)C[C@H]5/C=C\CC[C@@H](C)C[C@@H](C)[C@H](NC(=O)NC(C)(C)C)C(=O)N4C3)nc(-c3ccc(OC(C)C)cn3)cc2c1 [Compound 5211, (2R,6S,7R,9R,13aS,14aR,16aS,Z)-6-(3-(tert-butyl)ureido)-N-(cyclopropylsulfonyl)-2-((3-(5-isopropoxypyridin-2-yl)-6-methoxyisoquinolin-1-yl)oxy)-7,9-dimethyl-5,16-dioxo-1,2,3,5,6,7,8,9,10,11,13a,14,14a,15,16,16a-hexadecahydrocyclopropa[e]pyrrolo[1,2-a][1,4]diazacyclopentadecine-14a-carboxamide] | < 5.46 | < 5.46 |
| COc1ccc2c(O[C@@H]3C[C@H]4C(=O)N[C@]5(C(=O)NS(=O)(=O)C6CC6)C[C@H]5/C=C\CC[C@H](C)C[C@@H](C)[C@H](NC(=O)OC(C)(C)C)C(=O)N4C3)nc(-c3ccc(OC(C)C)nc3)cc2c1 [Compound 5212, tert-butyl ((2R,6S,7R,9S,13aS,14aR,16aS,Z)-14a-((cyclopropylsulfonyl)carbamoyl)-2-((3-(6-isopropoxypyridin-3-yl)-6-methoxyisoquinolin-1-yl)oxy)-7,9-dimethyl-5,16-dioxo-1,2,3,5,6,7,8,9,10,11,13a,14,14a,15,16,16a-hexadecahydrocyclopropa[e]pyrrolo[1,2-a][1,4]diazacyclopentadecin-6-yl)carbamate] | < 5.46 | < 5.46 |
| COc1ccc2c(O[C@@H]3C[C@H]4C(=O)N[C@]5(C(=O)NS(=O)(=O)C6CC6)C[C@H]5/C=C\CC[C@@H](C)C[C@@H](C)[C@H](NC(=O)OC(C)(C)C)C(=O)N4C3)nc(-c3ccc(OC(C)C)nc3)cc2c1 [Compound 5213, tert-butyl ((2R,6S,7R,9R,13aS,14aR,16aS,Z)-14a-((cyclopropylsulfonyl)carbamoyl)-2-((3-(6-isopropoxypyridin-3-yl)-6-methoxyisoquinolin-1-yl)oxy)-7,9-dimethyl-5,16-dioxo-1,2,3,5,6,7,8,9,10,11,13a,14,14a,15,16,16a-hexadecahydrocyclopropa[e]pyrrolo[1,2-a][1,4]diazacyclopentadecin-6-yl)carbamate] | < 5.46 | < 5.46 |
| COc1ccc2c(O[C@@H]3C[C@H]4C(=O)N[C@]5(C(=O)NS(=O)(=O)C6CC6)C[C@H]5/C=C\CC[C@H](C)C[C@@H](C)[C@H](NC(=O)OC(C)(C)C(F)(F)F)C(=O)N4C3)nc(-c3ccc(OC(C)C)nc3)cc2c1 [Compound 5214, 1,1,1-trifluoro-2-methylpropan-2-yl((2R,6S,7R,9S,13aS,14aR,16aS,Z)-14a-((cyclopropylsulfonyl)carbamoyl)-2-((3-(6-isopropoxypyridin-3-yl)-6-methoxyisoquinolin-1-yl)oxy)-7,9-dimethyl-5,16-dioxo-1,2,3,5,6,7,8,9,10,11,13a,14,14a,15,16,16a-hexadecahydrocyclopropa[e]pyrrolo[1,2-a][1,4]diazacyclopentadecin-6-yl)carbamate] | 4.82 to 103 | < 5.46 |
| COc1ccc2c(O[C@@H]3C[C@H]4C(=O)N[C@]5(C(=O)NS(=O)(=O)C6CC6)C[C@H]5/C=C\CC[C@@H](C)C[C@@H](C)[C@H](NC(=O)OC(C)(C)C(F)(F)F)C(=O)N4C3)nc(-c3ccc(OC(C)C)nc3)cc2c1 [Compound 5215, 1,1,1-trifluoro-2-methylpropan-2-yl((2R,6S,7R,9R,13aS,14aR,16aS,Z)-14a-((cyclopropylsulfonyl)carbamoyl)-2-((3-(6-isopropoxypyridin-3-yl)-6-methoxyisoquinolin-1-yl)oxy)-7,9-dimethyl-5,16-dioxo-1,2,3,5,6,7,8,9,10,11,13a,14,14a,15,16,16a-hexadecahydrocyclopropa[e]pyrrolo[1,2-a][1,4]diazacyclopentadecin-6-yl)carbamate] | < 5.46 | < 5.46 |
| [2H]C([2H])([2H])C(OC(=O)N[C@@H]1C(=O)N2C[C@H](Oc3nc(-c4ccc(OC(C)C)nc4)cc4cc(OC)ccc34)C[C@H]2C(=O)N[C@]2(C(=O)NS(=O)(=O)C3CC3)C[C@H]2/C=C\CC[C@H](C)C[C@H]1C)(C([2H])([2H])[2H])C(F)(F)F [Compound 5216, 1,1,1,3,3,3-hexadeutero-2-(trifluoromethyl)propan-2-yl((2R,6S,7R,9S,13aS,14aR,16aS,Z)-14a-((cyclopropylsulfonyl)carbamoyl)-2-((3-(6-isopropoxypyridin-3-yl)-6-methoxyisoquinolin-1-yl)oxy)-7,9-dimethyl-5,16-dioxo-1,2,3,5,6,7,8,9,10,11,13a,14,14a,15,16,16a-hexadecahydrocyclopropa[e]pyrrolo[1,2-a][1,4]diazacyclopentadecin-6-yl)carbamate] | 4.82 to 103 | < 5.46 |
| [2H]C([2H])([2H])C(OC(=O)N[C@@H]1C(=O)N2C[C@H](Oc3nc(-c4ccc(OC(C)C)nc4)cc4cc(OC)ccc34)C[C@H]2C(=O)N[C@]2(C(=O)NS(=O)(=O)C3CC3)C[C@H]2/C=C\CC[C@@H](C)C[C@H]1C)(C([2H])([2H])[2H])C(F)(F)F [Compound 5217, 1,1,1,3,3,3-hexadeutero-2-(trifluoromethyl)propan-2-yl((2R,6S,7R,9R,13aS,14aR,16aS,Z)-14a-((cyclopropylsulfonyl)carbamoyl)-2-((3-(6-isopropoxypyridin-3-yl)-6-methoxyisoquinolin-1-yl)oxy)-7,9-dimethyl-5,16-dioxo-1,2,3,5,6,7,8,9,10,11,13a,14,14a,15,16,16a-hexadecahydrocyclopropa[e]pyrrolo[1,2-a][1,4]diazacyclopentadecin-6-yl)carbamate] | < 5.46 | < 5.46 |
| COc1ccc2c(O[C@@H]3C[C@H]4C(=O)N[C@]5(C(=O)NS(=O)(=O)C6CC6)C[C@H]5/C=C\CC[C@H](C)C[C@@H](C)[C@H](NC(=O)OC5C[C@@H]6C[C@@H]6C5)C(=O)N4C3)nc(-c3ccc(OC(C)C)nc3)cc2c1 (stereo partly drawn) [Compound 5218, (1R,3r,5S)-bicyclo[3.1.0]hexan-3-yl((2R,6S,7R,9S,13aS,14aR,16aS,Z)-14a-((cyclopropylsulfonyl)carbamoyl)-2-((3-(6-isopropoxypyridin-3-yl)-6-methoxyisoquinolin-1-yl)oxy)-7,9-dimethyl-5,16-dioxo-1,2,3,5,6,7,8,9,10,11,13a,14,14a,15,16,16a-hexadecahydrocyclopropa[e]pyrrolo[1,2-a][1,4]diazacyclopentadecin-6-yl)carbamate] | < 5.46 | < 5.46 |
| COc1ccc2c(O[C@@H]3C[C@H]4C(=O)N[C@]5(C(=O)NS(=O)(=O)C6CC6)C[C@H]5/C=C\CC[C@@H](C)C[C@@H](C)[C@H](NC(=O)OC5C[C@@H]6C[C@@H]6C5)C(=O)N4C3)nc(-c3ccc(OC(C)C)nc3)cc2c1 (stereo partly drawn) [Compound 5219, (1R,3r,5S)-bicyclo[3.1.0]hexan-3-yl((2R,6S,7R,9R,13aS,14aR,16aS,Z)-14a-((cyclopropylsulfonyl)carbamoyl)-2-((3-(6-isopropoxypyridin-3-yl)-6-methoxyisoquinolin-1-yl)oxy)-7,9-dimethyl-5,16-dioxo-1,2,3,5,6,7,8,9,10,11,13a,14,14a,15,16,16a-hexadecahydrocyclopropa[e]pyrrolo[1,2-a][1,4]diazacyclopentadecin-6-yl)carbamate] | < 5.46 | < 5.46 |
